Blank lines part the entries; values can stand above or below the molecule they belong to.
Legend:
[1] = system: THP-1 cells; experiment: Monocyte-macrophage differentiation of THP-1 cells (FACS / qRT-PCR of CD14, CD11B); type: cell-based, human
Description: Cultured cells were lysed in Macherey-Nagel RAI buffer containing 1% β-mercaptoethanol and total RNAs were isolated using NucleoSpin RNA isolation kit (Macherey-Nagel 740955). Reverse transcription and PCR amplification were performed. Primers used in this study are listed in Supplementary Table 1. Graphs show relative gene expressions to GAPDH. […] Statistical analyses were performed using PRISM7 software with unpaired t-test or one-way ANOVA test.
For analyzing macrophage differentiation of THP-1, cells were harvested, pelleted and resuspended in ice-cold blocking buffer (PBS supplemented with 1% BSA and 0.1% NaN3). Cells were treated with Fc Receptor Binding Inhibitor as recommended by the manufacturer (eBioscience 14916173) and stained directly with FITC/APC-conjugated antibodies diluted in blocking buffer or with non-conjugated primary antibodies followed by fluorochrome-labeled secondary antibodies. Isotype-matched antibodies were used as controls. Dead cells were excluded by counterstaining with propidium iodide. For analyzing apoptosis of THP-1, cells were fixed in 4% PFA, permeabilized by MeOH and blocked with PBS supplemented with 1% BSA and 0.1% Tween-20. Cells were stained with anti-active Caspase-3 antibody and fluorochrome-labeled secondary antibody. FACS Samples were analyzed with FACSCalibur or FACSCanto (BD Biosciences). 10,000 events per samples were acquired, and results were processed with Cell Quest or FACSDiva software (BD Biosciences). For BMP4 stimulation, cells were treated with 5 and 25 ng ml^−1 recombinant human BMP4 protein (R&D systems 314-BP). 100, 300 and 1000 nM LDN […] (Tocris 6053) were used for rescue assay. For the THP-1 cell number quantification and differentiation validation in vivo, bone marrow cells were harvested from tibias of NSG mice and red blood cells were removed by ACK Lysing Buffer (Gibco A1049201). Cells were stained and analyzed as above. Here, 50,000 PI-negative events per samples were acquired.
(§1) THP-1 cells were treated with 0.3, 1.0 and 3.0 μg ml^−1 goat polyclonal anti-RSPO2 antibodies (R&D systems AF3266) or goat polyclonal GFP antibodies (ABIN 100085). After 48 hours, medium was replaced including fresh antibodies—and incubated another 24 hours. Western blot analysis and FACS analyses were performed as discussed above.
(§2) The sequences of shRSPO2 and shControl (Table 1) were synthesized, inserted into the transfer plasmid Tet-pLKO-puro (Addgene 21915) and validated by sequencing. Lentivirus was produced with the 3rd generation lentiviral system according to the protocol available at the Trono lab as described (www.epfl.ch/labs/tronolab/). THP-1 cells were infected with lentivirus with 8 μg ml^−1 Polybrene (Sigma TR-1003) and selected with 0.5 μg ml^−1 puromycin (Calbiochem 540411). Single cell clones were obtained by limiting dilutions. The shRNA expression of clones was validated by monitoring RSPO2 expression after doxycycline treatment (1.0 μg ml^−1) for 3 days.

[2] = system: Smad1; experiment: Western blot of pSmad1 and tSmad1 in THP-1 cells; type: cell-based, human; conditions: THP-1 cells treated with RSPO2 siRNA plus inhibitor
Description: Cultured cells were rinsed with cold PBS and lysed in Triton lysis buffer ([…] Tris-Cl, pH 7.5, 1% Triton X-100, 150 mM NaCl, 1 mM EDTA, 1 mM EGTA, 1 mM β-glycerophosphate, 1 mM Na3 VO4) or RIPA buffer with complete Protease Inhibitor Cocktail (Roche 11697498001). Lysates were mixed with Laemmli buffer with β-mercaptoethanol and boiled at 95° C. for 5 min to prepare SDS-PAGE samples. Western blot images were acquired with SuperSignal West pico ECL (ThermoFisher 34580) or Clarity Western ECL (Biorad 1705061) using LAS-3000 system (FujiFilm). Quantification of blots was done using ImageJ software.
as §1

[3] = system: BMP4 signaling; experiment: BRE reporter assay in HEPG2 cells stimulated by BMP4; type: cell-based, human; conditions: HEPG2 cells
Description: BRE luciferase assays were executed using 300,000 ml^−1 of HEPG2 cells in 24-well plates. PGL3-BRE-Luciferase (500 ng ml^−1) and pRL-TK-Renilla plasmids (50 ng ml^−1) were transfected using Lipofectamine 3000. After 24 hours, cells were serum starved 2 hours and stimulated 14-16 hours with 80 ng ml^−1 recombinant human BMP4 protein (R&D systems 314-BP) along with AP tagged RSPO1-4 or flag tagged RSPO1-3 conditioned medium. Luciferase activity was measured with the Dual luciferase reporter assay system (Promega E1960). Firefly luminescence (BRE) was normalized to Renilla. TOPFlash luciferase assays were carried out as previously described (Berger et al. (2017), EMBO Rep 18, 712-725, doi: 10.15252/embr.201643585). […] Statistical analyses were made with the PRISM7 software using unpaired t-test or one-way ANOVA test. Not significant (ns) P>0.05, *P<0.05, **P<0.01, ***P<0.001, and ****P<0.0001.

[4] = system: Xenopus embryos; experiment: Crispr-Cas9-mediated Xenopus rspo2 knockout embryos; type: in vivo, Xenopus tropicalis
[5] = system: THP-1 cells; experiment: THP-1 cell growth and colony formation assay; type: cell-based, human; conditions: TetOn-shRSPO2 clones, Dox treatment
Description: as §2
1,000 cells per well of Dox-inducible THP-1 clones were seeded into 24-well plates in RPMI+10% FBS, 1% penicillin-streptomycin, 1 mM sodium pyruvate, 2 mM L-glutamine and 0.5% methylcellulose, with or without Doxycycline (1 μg ml^−1). After 8 days incubation, microscopic dark field images were taken using LEICA DMIL microscope/Canon DS126311 camera.

[6] = system: THP-1 cells; experiment: THP-1 AML xenograft in NSG mice; type: in vivo, mouse
Description: For analyzing macrophage differentiation of THP-1, cells were harvested, pelleted and resuspended in ice-cold blocking buffer (PBS supplemented with 1% BSA and 0.1% NaN3). […] Isotype-matched antibodies were used as controls. Dead cells were excluded by counterstaining with propidium iodide. For analyzing apoptosis of THP-1, cells were fixed in 4% PFA, permeabilized by MeOH and blocked with PBS supplemented with 1% BSA and 0.1% Tween-20. […] FACS Samples were analyzed with FACSCalibur or FACSCanto (BD Biosciences). 10,000 events per samples were acquired, and results were processed with Cell Quest or FACSDiva software (BD Biosciences). […] For the THP-1 cell number quantification and differentiation validation in vivo, bone marrow cells were harvested from tibias of NSG mice and red blood cells were removed by ACK Lysing Buffer (Gibco A1049201). Cells were stained and analyzed as above. Here, 50,000 PI-negative events per samples were acquired.
NOD SCID gamma (NSG) mice were recruited from the Center for Preclinical Research, DKFZ, Heidelberg. […] Randomized mouse cohorts (n=6-7 mice/group) were treated with Dox or vehicle throughout the study. Treatment started 3 days prior to cell transplantation via drinking water consisting 1 mg/ml Dox and 5% saccharose, or 5% saccharose only. […] 500,000 cells in 100 μl PBS were injected intravenously into the lateral tail vein of 7-8-week-old female mice. Besides regular health checks, mouse body weight was taken twice per week throughout the experiment. Heparinized blood was collected from the tail vein at days 9 and 22 after transplantation. Terminal blood collection was performed under isoflurane anesthesia followed by cervical dislocation. Necropsies were taken as indicated or when mice reached a stop criterion of the German Society of Laboratory Animal Sciences (GV-SOLAS), until here defined as survival. All mouse experiments were in accordance with the approved guidelines of the local Governmental Committee for Animal Experimentation (RP Karlsruhe, Germany, license G140/19).
For each reaction, 25 ng genomic DNA was used. A standard curve was generated with genomic DNA extracted from NSG mice blood containing known numbers of THP-1 cells and used for converting qPCR fluorescent signals to actual cell numbers. Normal NSG mice blood and nuclease free water were used as negative controls.

[7] = molecular target: T1, ALK3RD (Homo sapiens, UniProt P36894, Q233D); experiment: BRE reporter assay in HEPG2 cells with constitutively active ALK3; type: cell-based; conditions: RSPO treatment
T1 construct: expressed in transfected cells; host or cells: HEPG2
T1 sequence (P36894 24-532 Q233D): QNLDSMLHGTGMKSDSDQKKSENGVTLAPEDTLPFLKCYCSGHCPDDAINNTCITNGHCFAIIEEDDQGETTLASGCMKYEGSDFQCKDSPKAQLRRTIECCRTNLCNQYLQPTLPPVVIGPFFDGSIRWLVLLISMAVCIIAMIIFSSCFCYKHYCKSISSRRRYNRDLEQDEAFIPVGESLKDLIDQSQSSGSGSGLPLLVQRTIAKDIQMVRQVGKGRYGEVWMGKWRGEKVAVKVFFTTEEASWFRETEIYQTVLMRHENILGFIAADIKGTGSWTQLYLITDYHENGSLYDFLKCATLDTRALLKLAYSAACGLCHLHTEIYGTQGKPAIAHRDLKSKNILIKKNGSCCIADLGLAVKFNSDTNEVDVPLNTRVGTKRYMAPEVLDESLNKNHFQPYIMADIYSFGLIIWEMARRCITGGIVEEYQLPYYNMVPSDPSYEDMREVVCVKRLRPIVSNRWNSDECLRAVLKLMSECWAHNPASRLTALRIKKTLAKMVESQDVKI
Excerpt: Alkaline phosphatase (AP) fusions with RSPOs (human RSPO1^ΔC-AP-pCDNA3, RSPO2^ΔC-AP-pCDNA3, RSPO2^ΔC-AP-pCS2+, RSPO3^ΔC-AP-pCDNA3, murine RSPO4^ΔC-pCDNA3) were generated by replacing the C-terminal domain (ΔC) by AP and used to produce conditioned media. Human RSPO2 wild-type (RSPO2), Furin1 and Furin2 deletion mutants (RSPO2^ΔFU), and TSP1 domain deletion mutant (RSPO2^ΔTSP) are ORFs lacking the C-terminal domain, C-terminally tagged with a Flag-tag and subcloned into pCS2+. R1-TSP^R2, R1-TSP^R2-AP and R1-TSP^R2-Flag plasmids were generated by fusion PCR and cloned in pCS2+. Conditioned media from all RSPO constructs were adjusted to equal concentration by western blot and AP activity measurement, and further validated by WNT reporter assay using HEK293T cells. The extracellular domain of ALK3 (ALK3^ECD) was subcloned in AP-pCS2+ for generating conditioned medium and used in in vitro binding assays. Constitutively active forms of ALK2,3,6 (ALK^QD) were generated by Gln-Asp mutations as described in Fujii et al. (1999), Mol Biol Cell 10, 3801-3813, doi: 10.1091/mbc.10.11.3801. HA-tagged ALK3 was a gift from Dr. D. Koinuma (Goto et al. (2007), J Biol Chem 282, 20603-20611, doi: 10.1074/jbc.M702100200). For Xenopus mRNA microinjection, Xenopus laevis BMP4-pCS2+, myc-tagged RSPO2^ΔC-myc-pCS2+, RSPO2^ΔFU-myc-pCS2+ and RSPO2^ΔTSP-myc-pCS2+ plasmids, DNALK3-pCS2+, membrane-RFP, EYFP-tagged human ALK3-pCS2+ were used for in vitro transcription. Human ZNRF3 and ZNRF3^ΔRING constructs were gifts from Dr. F. Cong (Novartis; Hao et al. (2012), Nature 485, 195-200, doi: 10.1038/nature11019), and ORFs were subcloned in flag-pCS2+ for in vitro transcription.
BRE luciferase assays were executed using 300,000 ml^−1 of HEPG2 cells in 24-well plates. PGL3-BRE-Luciferase (500 ng ml^−1) and pRL-TK-Renilla plasmids (50 ng ml^−1) were transfected using Lipofectamine 3000. […] Luciferase activity was measured with the Dual luciferase reporter assay system (Promega E1960). Firefly luminescence (BRE) was normalized to Renilla. […]

Molecule: c1ccc2c(-c3cnn4cc(-c5ccc(N6CCNCC6)cc5)cnc34)ccnc2c1 [LDN 193189]
monocyte-macrophage differentiation induced by siRSPO2 ([1]; THP-1 cells, siRSPO2 plus inhibitor): impaired monocyte-macrophage differentiation | Smad1-phosphorylation increased by RSPO2 knockdown [2]: reverted increased Smad1-phosphorylation

Molecule: CN(C)c1cccc2c(S(=O)(=O)NCCCCCN)cccc12 [monodansylcadaverin, reference compound]
effect on inhibition of BMP signaling by RSPO2 ([3]; BMP4+RSPO2): eliminated inhibition of BMP signaling by RSPO2

Molecule: gRNA: previously established guide RNA for Crispr-Cas9 rspo2 knockout, TGACTCCATAGTATCCAGGA (SEQ ID NO:11) (listed as DNA, chemistry not given here)
embryo phenotype [4]: mildly ventralized embryos | BMP target gene expression ([4]; sizzled in situ hybridization): increased BMP target gene expression

Molecule: shRSPO2: Dox-inducible shRNA against RSPO2, SEQ ID NO:10, expressed in THP-1 clones (GACAATGGGTGTAGCCGATCTCGAGATCGGCTACACCCATTGTC)
BMP signaling and monocyte-macrophage differentiation ([1]; THP-1 TetOn-shRSPO2 clones, Dox-administration): induced BMP signaling and robust monocyte-macrophage differentiation | THP-1 cell growth [5]: reduced THP-1 cell growth | colony formation [5]: reduced | prolongation of disease-free survival ([6]; NSG mice injected with TetOn-shRSPO2 THP-1 cell line #1, Dox induction, still alive at reporting time): at least 2.3 fold | survival ([6]; NSG mice injected with TetOn-shRSPO2 THP-1 cell line #2, Dox induction): survived almost twice as long | tumor burden ([6]; NSG mice, TetOn-shRSPO2 THP-1 cells, Dox induction): reduced tumor burden | macrophage differentiation in bone marrow ([6]; NSG mice, both TetOn-shRSPO2 cell lines, Dox induction): enhanced macrophage differentiation

B1: RSPO1: secreted R-spondin protein; conditioned medium or recombinant human RSPO1 (Peprotech 120-38) (protein, UniProt Q2MKA7 21-263, looked up)
R-spondin-1: SRGIKGKRQRRISAEGSQACAKGCELCSEVNGCLKCSPKLFILLERNDIRQVGVCLPSCPPGYFDARNPDMNKCIKCKIEHCEACFSHNFCTKCKEGLYLHKGRCYPACPEGSSAANGTMECSSPAQCEMSEWSPWGPCSKKQQLCGFRRGSEERTRRVLHAPVGDHAACSDTKETRRCTVRRVPCPEGQKRRKGGQGRRENANRNLARKESKEAGAGSRRRKGQQQQQQQGTVGPLTSAGPA
BMP signaling induced by constitutively active ALK3 [7]: had no effect

BMP signaling induced by constitutively active ALK3 [7]: specifically inhibited
B2: RSPO3: human R-spondin 3 protein (SEQ ID NO:2); conditioned medium or recombinant (Peprotech 120-44) (protein, listed as Homo sapiens)
chain: MHLRLISWLFIILNFMEYIGSQNASRGRRQRRMHPNVSQGCQGGCATCSDYNGCLSCKPRLFFALERIGMKQIGVCLSSCPSGYYGTRYPDINKCTKCKADCDTCFNKNFCTKCKSGFYLHLGKCLDNCPEGLEANNHTMECVSIVHCEVSEWNPWSPCTKKGKTCGFKRGTETRVREIIQHPSAKGNLCPPTNETRKCTVQRKKCQKGERGKKGRERKRKKPNKGESKEAIPDSKSLESSKEIPEQRENKQQQKKRKVQDKQKSVSVSTVH
BMP4 signaling ([3]; BMP4 stimulation, treatment with RSPO protein): decreased BMP4 signaling

Source: US20250346890A1, “LEUKEMIA TREATMENT” (Deutsches Krebsforschungszentrum, priority 2019, published 2025)
